# From ChEMBL document CHEMBL3045998, “QSAR analysis of 2-benzoxazolyl hydrazone derivatives for anticancer activity and its possible target prediction” (Med Chem Res, 2012)
# Tests used:
# Type in all cases: functional, cell-based
# [1] = system: HeLa; test: Cytotoxicity against Homo sapiens (human) HeLa cells assessed as growth inhibition
# [2] = system: CCRF-CEM; test: Cytotoxicity against Homo sapiens (human) CCRF-CEM cells assessed as growth inhibition
# [3] = Cytotoxicity against Homo sapiens (human) Burkitt lymphoma cells assessed as growth inhibition
SMILES,IC50 [1],IC50 [2],IC50 ([3]; read-out: IC50),IC50 ([3]; read-out: pIC50 (converted))
C/C(=N\Nc1nc2ccccc2o1)c1nccnc1C,0.186 µM,0.129 µM,0.9 µM,0.891 µM
C/C(=N\Nc1nc2ccccc2o1)c1cnc(C)cn1,–,–,0.15 µM,0.151 µM
CC/C(=N\Nc1nc2ccccc2o1)c1ccccn1,0.0513 µM,–,0.002 µM,0.002 µM
C/C(=N\Nc1nc2ccccc2o1)c1cccc[n+]1[O-],–,–,0.027 µM,0.0269 µM
c1ccc(C(=NNc2nc3ccccc3o2)c2ccccn2)nc1,–,–,0.012 µM,0.012 µM
c1ccc(/C(=N/Nc2nc3ccccc3o2)C2CC2)nc1,–,–,0.185 µM,0.186 µM
C/C(=N\Nc1nc2ccccc2o1)c1ccc2ccccc2n1,–,–,5.49 µM,5.5 µM
C(=N\Nc1nc2ccccc2o1)/c1ccccn1,–,–,0.005 µM,0.00501 µM
C/C(=N\Nc1nc2ccccc2o1)c1ccncn1,–,–,0.144 µM,0.145 µM
C/C(=N\N(C)c1nc2ccccc2o1)c1ccccn1,–,–,> 50 µM,–
C/C(=N\Nc1nc2ccccc2o1)c1ncccn1,–,–,0.03 µM,0.0302 µM
C/C(=N\Nc1nc2ccccc2o1)c1nccc2ccccc12,–,–,0.2 µM,0.2 µM
CC(C)(C)/C(=N\Nc1nc2ccccc2o1)c1ccccn1,–,–,> 10 µM,–
C/C(=N\Nc1nc2ccccc2o1)c1ccc(C)nn1,–,–,6.27 µM,6.31 µM
C/C(=N\Nc1nc2ccccc2o1)c1cccnc1,–,–,> 100 µM,–
CCC/C(=N\Nc1nc2ccccc2o1)c1ccccn1,–,–,0.006 µM,0.00603 µM
c1ccc(C/C(=N\Nc2nc3ccccc3o2)c2ccccn2)cc1,–,–,> 10 µM,–
C/C(=N\Nc1nc2ccccc2o1)c1cc(C)ncn1,–,–,0.042 µM,0.0417 µM
CC(C)/C(=N\Nc1nc2ccccc2o1)c1ccccn1,–,–,0.014 µM,0.0141 µM
C/C(=N\Nc1nc2ccccc2o1)c1ccccn1,–,–,0.009 µM,0.00891 µM
C/C(=N\Nc1nc2ccccc2o1)c1cc2ccccc2cn1,–,–,0.03 µM,0.0302 µM
c1ccc(/C(=N\Nc2nc3ccccc3o2)c2ccccn2)cc1,–,–,0.12 µM,0.12 µM
C/C(=N\Nc1nc2ccccc2o1)c1cccnn1,–,–,1.3 µM,1.29 µM
